Experimental findings from publication PMC9313812, “The Pseudo‐Natural Product Rhonin Targets RHOGDI” (Angewandte Chemie (International Ed. in English), 2022) are described below.

One series has as its system NIH/3T3 cells. The series is described as follows: Wound healing assay (cell migration). It is filed as cell-based. Conditions: 10 µM Rhonin; 2 µg/ml RHO inhibitor I; purmorphamine 2 µM. How it is done:
Supplementary Figure S13. Influence of 10 µM Rhonin on cell migration in NIH/3T3 cells upon stimulation with purmorphamine (Purm, 2 µM). The RHO inhibitor I was used as a control. Cell migration was monitored by means of a wound healing assay. Data ar e representative of three independent experiments (n=3, N = 3), mean values ± SD. […]
40,000 x g for 30 min at 4°C. Supernatants were collected as cytoplasmic fraction and pellets were resuspended into a homogenization buffer (0.25 M sucrose, 20 mM Tris/HCl pH 7.4, 25 mM KCl, 5 mM MgCl2) and further centrifuged (2 h at 100,000 x g) using an iodixanol (OptiPrep, Axis Shield) gradient solution. Obtained fractions were used for immunoblotting.
NIH/3T3 cells were seeded in a 96 plate (10,000 cell per well/ plate name: Essen Bioscience NO 4379). NIH/3T3 cells were grown till 80% confluence and then serum starved (0 % FCS) for 24 h. […] Cell migration was monitored using IncuCyte ZOOM for a period of 48 h. The images were analyzed by the Incucyte Scratch Wound Analysis Software. […]
GTPase primary antibody (RAC1, CDC42 or RHOA) was added and the tubes and were incubated for 45 min at room temperature. […] Absorption was detected at 490 nm using a plate reader (Tecan Sparks).
Aqueous solubility of compounds was assessed by determination of the kinetic solubility of a test compound in aqueous buffer compared to a solution in organic solvent (acetonitrile). […]

Series [1] is described as follows: Parallel artificial membrane permeability assay (PAMPA). The conditions noted are these: initial 500 µM in donor, 20 h. It is filed as in vitro ADME. On the procedure:
500 µM final compound concentrations. The kinetic solubility of the compound solutions in HEPES buffer pH 7.4 were then compared to a solution in the organic solvent (ACN) after vigorous shaking on an orbital shaker at room temperature for 90 min. Therefore, the spectrum 250 -500 nm was recorded using the Spectramax plate reader. Precipitated material was removed by filtration prior to analysis. Each sample was tested in triplicate.
Aqueous solubility was also determined using a turbidimetric assay. DMSO stock solutions were diluted in DMSO to produce a range of concentrations. These were then added to PBS buffer pH7.4 (final test compound concentrations: 1 µM, 3 µM, 10 µM, 30 µM, 100 µM, 1% final DMSO concentration, 7 replicates per concentration). After 2 h incubation period at room temperature, the absorbance at 620 nm was read for each concentration and each replicate using a Spectramax plate reader.
Permeability through artificial membranes assay (PAMPA)
Permeability through artificial membranes (phospholipid/cholesterol in dodecane) was assessed at an initial compound concentration of 500 µM in the donor compartment. Absorption of the receiver wells was determined by spectrophotometrical measurement using a Spectramax absorbance plate reader after 20 h of incubation. Permeation was calculated by normalization of compound flux across a blank filter. […]
Background: PAMPA measures passive passage across an artificial lipid membrane.

As to `COC(=O)C1(C(CC(=O)c2cccnc2)c2ccccc2)N=C(c2ccc(Br)cc2)C2C(=O)N(C)C(=O)C21` (centres unmarked) [7l], the “Wound closure / cell migration (in words)” value in the series with NIH/3T3 cells was “moderately inhibited wound closure”. Besides, the “permeability, flux in PAMPA” value in series [1] is recorded as 41.1%.
